From PubChem BioAssay (NCI) come the findings set out here.

Some test systems named below: A498 renal; A549 NSCLC; HCT-15 colon; MCF7 breast; MOLT-4 leukemia; OVCAR-8 ovarian; RXF 393 renal; SF-539 CNS; SK-MEL-28 melanoma; SK-OV-3 ovarian.
Common to all, as to assay: NCI-60 cell line screen, 48 h

Structures are written as SMILES.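 Briefly, cells in 96-well plates were exposed to five compound concentrations for 48 h, and endpoints were estimated by linear interpolation. GI50 = concentration required for 50% inhibition of growth. The concentration for full growth arrest is given as TGI.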

In the case of `CC(C)N(CC(=O)O)CC(=O)O`, the TGI with A498 renal, with A549 NSCLC, with HCT-15 colon, in the test with MCF7 breast, in the test with MOLT-4 leukemia and in the test with OVCAR-8 ovarian was over 100 µM throughout. Also, the TGI in the test with RXF 393 renal, in the test on SF-539 CNS, in the test with SK-MEL-28 melanoma and in the test with SK-OV-3 ovarian was over 100 µM in each case.

Consider `O=C1c2cc3c(cc2[C@@H]2C(O)[C@H]4O[C@H]4C4CCN1C42)OCO3` (stereo partly drawn), for which the TGI with A549 NSCLC, in the test with HCT-15 colon, in the test on MOLT-4 leukemia, in the test on OVCAR-8 ovarian, with SF-539 CNS and in the test on SK-MEL-28 melanoma was over 37.5 µM throughout. In the test on SK-OV-3 ovarian, this compound showed a TGI of over 37.5 µM.

In the case of `C[C@@]12CC[C@@H](O)C[C@@H]1CC[C@H]1[C@H]2CC[C@@]2(C)[C@H](c3ccc(=O)oc3)CC[C@@]12O`, the GI50 with A498 renal, in the test with A549 NSCLC, in the test on HCT-15 colon, with MCF7 breast, in the test on RXF 393 renal and in the test with SF-539 CNS was under 0.01 µM each time. In addition, the results for the GI50 with SK-MEL-28 melanoma and with SK-OV-3 ovarian were under 0.0141 µM and under 0.0118 µM, respectively. Also, the TGI stood at 0.0445 µM with A498 renal; 0.0292 µM with HCT-15 colon; 0.0932 µM with MCF7 breast; 0.0137 µM with SF-539 CNS; 0.119 µM in the test with SK-MEL-28 melanoma; 0.0451 µM in the test on SK-OV-3 ovarian.

Consider `O=C(c1ccccc1)c1ccc(N2C(=O)/C(=C/c3cccc(Oc4ccccc4)c3)N=C2c2ccccc2)c(N2C(=O)/C(=C/c3cccc(Oc4ccccc4)c3)N=C2c2ccccc2)c1`, for which the TGI with A498 renal was over 100 µM; in the test with A549 NSCLC, over 100 µM; in the test with HCT-15 colon it was over 100 µM; with MCF7 breast it was 94.3 µM; in the test with MOLT-4 leukemia, over 100 µM; in the test on OVCAR-8 ovarian, over 100 µM. Besides, the TGI with RXF 393 renal, with SK-MEL-28 melanoma and in the test on SK-OV-3 ovarian was over 100 µM in each case.

For `CCOC(=O)C(C(=O)OCC)c1cc(-c2cc3ccccc3o2)oc(=O)c1C#N`, the TGI was 70.1 µM in the test with A498 renal; over 100 µM in the test on A549 NSCLC; 35.7 µM in the test on HCT-15 colon; 87.2 µM in the test with MOLT-4 leukemia; 49.1 µM in the test with OVCAR-8 ovarian; 43.5 µM in the test with RXF 393 renal. In addition, the TGI in the test with SF-539 CNS was 36.8 µM; with SK-MEL-28 melanoma it was 63.3 µM.

For `NC1=NC(c2ccc(Cl)cc2)=CC(c2cccc(Cl)c2)S1` (stereo not drawn), the TGI was 87.2 µM with A549 NSCLC; 33.2 µM in the test with HCT-15 colon; over 100 µM with MCF7 breast; over 100 µM with MOLT-4 leukemia; over 100 µM with OVCAR-8 ovarian; 77.1 µM in the test on RXF 393 renal. Besides, the TGI with SF-539 CNS and in the test on SK-OV-3 ovarian was over 100 µM in each case.

Take `CC(C)=CCC/C(C)=C/Cc1c2c(c3oc(-c4ccc(O)c(O)c4)c(O)c(=O)c3c1O)C=CC(C)(C)O2`: the TGI in the test with A498 renal was 12.9 µM; in the test with A549 NSCLC, 12.4 µM; with HCT-15 colon, 8.39 µM; with MCF7 breast it was 11.4 µM; with MOLT-4 leukemia, 8.98 µM; in the test on OVCAR-8 ovarian it was 7.92 µM. Further, the TGI stood at 18.6 µM in the test on RXF 393 renal, 7 µM in the test on SF-539 CNS, 10.8 µM in the test with SK-MEL-28 melanoma and 8.65 µM in the test with SK-OV-3 ovarian.

In the case of `COc1ccc2c(O)c1-c1c(OC)ccc(c1O)SSc1ccc(OC)c(c1O)-c1c(OC)ccc(c1O)SS2`, the TGI with A498 renal is over 100 µM; in the test with A549 NSCLC, over 100 µM; with MCF7 breast it was over 100 µM; in the test on MOLT-4 leukemia, over 100 µM; with OVCAR-8 ovarian, over 100 µM; with RXF 393 renal, 60 µM. Also, the figures for the TGI in the test with SF-539 CNS, in the test with SK-MEL-28 melanoma and with SK-OV-3 ovarian were 69.1 µM, over 100 µM and over 100 µM, respectively.

In the case of `CN(C)CCC(=O)[C@@]1(O)CC[C@H]2[C@@H]3CC=C4C[C@@H](O)CC[C@]4(C)[C@H]3CC[C@@]21C`, the TGI in the test with A498 renal is 29.7 µM; with A549 NSCLC, over 86.8 µM; with HCT-15 colon, 45.1 µM; in the test with MCF7 breast, 16.8 µM; in the test on MOLT-4 leukemia it was 53.1 µM; with OVCAR-8 ovarian, 40 µM. Also, the TGI in the test with RXF 393 renal was 23.1 µM; in the test with SF-539 CNS it was 8.61 µM; with SK-MEL-28 melanoma, 33.2 µM; in the test on SK-OV-3 ovarian it was over 66.8 µM.

As for `COc1cc2cc(C(=O)N3CC(CCl)c4ccc(NO)cc43)[nH]c2c(OC)c1OC` (stereo not drawn), the TGI in the test with A498 renal was over 100 µM; with A549 NSCLC, over 100 µM; in the test on HCT-15 colon, over 100 µM; in the test with MCF7 breast, over 32.8 µM; in the test on MOLT-4 leukemia, 0.61 µM; with OVCAR-8 ovarian, 11.5 µM. The TGI with RXF 393 renal was 0.343 µM; in the test on SF-539 CNS, 1.99 µM; in the test on SK-MEL-28 melanoma, 3.22 µM; in the test on SK-OV-3 ovarian, 3.01 µM.

Consider `Nc1c(S(=O)(=O)O)cc(S(=O)(=O)O)c2ccc(N=Nc3ccccc3)c(O)c12`, for which the TGI in the test with A498 renal, in the test with A549 NSCLC, with HCT-15 colon, with MCF7 breast, with OVCAR-8 ovarian and in the test on RXF 393 renal was over 100 µM throughout. The TGI with SF-539 CNS, in the test on SK-MEL-28 melanoma and in the test on SK-OV-3 ovarian was over 100 µM throughout.

As for `C/C=C\C1OC1(C)c1cc(=O)c2c(C)cc3c(c2o1)C(=O)c1c(O)c(C2CC(C)(N(C)C)C(OC(C)=O)C(C)O2)cc(C2CC(N(C)C)C(O)C(C)O2)c1C3=O` (stereo not drawn), the TGI with A498 renal is 0.0215 µM; in the test on A549 NSCLC, 0.482 µM; with HCT-15 colon, 0.0291 µM; in the test with MCF7 breast, 0.0401 µM; in the test on MOLT-4 leukemia, 0.049 µM; in the test with OVCAR-8 ovarian it was 0.0177 µM. For the same compound, the TGI with RXF 393 renal was found to be 0.00746 µM; in the test with SF-539 CNS, 0.0121 µM; in the test with SK-OV-3 ovarian it was 0.0498 µM.

As for `O=C(c1ccccc1)c1ccc(N2C(=O)/C(=C/c3ccccc3S)N=C2c2ccccc2)c(N2C(=O)/C(=C/c3ccccc3S)N=C2c2ccccc2)c1`, the TGI in the test on A498 renal was over 100 µM; in the test on A549 NSCLC, over 100 µM; in the test with HCT-15 colon, over 100 µM; in the test on MCF7 breast, over 100 µM; with MOLT-4 leukemia it was 56.6 µM; in the test with OVCAR-8 ovarian, 88.6 µM. Also, the TGI is 40.3 µM in the test with SF-539 CNS, over 100 µM in the test with SK-MEL-28 melanoma and over 100 µM with SK-OV-3 ovarian.

With `O=C(O)C1=C(CO)Oc2cc3c(cc2C1c1ccc2c(c1)OCO2)OCO3` (stereo not drawn), the TGI with A549 NSCLC, with HCT-15 colon, in the test on MOLT-4 leukemia, in the test on OVCAR-8 ovarian, in the test on RXF 393 renal and in the test with SF-539 CNS was over 100 µM in each case. Moreover, the TGI with SK-MEL-28 melanoma and with SK-OV-3 ovarian was over 100 µM in each case.

As to `CCOC(=O)c1sc2nc(SC)nc3c2c1NC(=O)CN3c1ccc(F)cc1`, the TGI in the test with A498 renal was 98.7 µM; with A549 NSCLC, 50.9 µM; in the test on MCF7 breast, over 100 µM; in the test with MOLT-4 leukemia, over 100 µM; with OVCAR-8 ovarian, 69.1 µM; in the test on RXF 393 renal, 41.8 µM. Besides, the values for the TGI in the test with SF-539 CNS, with SK-MEL-28 melanoma and in the test with SK-OV-3 ovarian were 33.3 µM, 82.6 µM and 57.7 µM, respectively.

For `C=C(C)[C@@H]1CC[C@]2(C(=O)O)CC[C@]3(C)[C@H](CC[C@@H]4[C@@]5(C)C/C(=C/c6ccco6)C(=O)C(C)(C)[C@@H]5CC[C@]43C)[C@@H]12`, the GI50 with A549 NSCLC was 2.12 µM; with HCT-15 colon, 2.59 µM; in the test on MCF7 breast it was 2.62 µM; in the test with OVCAR-8 ovarian, 3.5 µM. Also, the TGI in the test on A549 NSCLC is over 100 µM; in the test on HCT-15 colon, 10.5 µM; in the test with MCF7 breast, 10.7 µM; with OVCAR-8 ovarian, over 100 µM.

With `C/C(=C\[Si](C)(C)c1ccco1)C(C)(O)[C@H](C)O` (stereo partly drawn), the TGI in the test with A498 renal, in the test with A549 NSCLC, with HCT-15 colon, with MCF7 breast, with MOLT-4 leukemia and in the test on OVCAR-8 ovarian was over 100 µM throughout. For the same compound, the TGI in the test with SF-539 CNS, in the test with SK-MEL-28 melanoma and with SK-OV-3 ovarian was over 100 µM each time.

Turning to `Cc1nn(CNc2ccc(F)c(Cl)c2)c(=S)n1/N=C/c1ccc(-c2ccc(Cl)cc2Cl)o1`, the TGI came to 30.3 µM with A498 renal; 41.6 µM in the test with HCT-15 colon; 37.3 µM with MCF7 breast; 6.59 µM in the test on MOLT-4 leukemia; 48.5 µM in the test on OVCAR-8 ovarian; 34.3 µM in the test on RXF 393 renal. For the same compound, the TGI in the test with SF-539 CNS was found to be 34.8 µM; in the test with SK-MEL-28 melanoma, 44.3 µM; in the test with SK-OV-3 ovarian, 33.2 µM.

For the compound `Cc1csc2nc(-c3cc([N+](=O)[O-])c(Cl)cc3Cl)c(/C=N/N=C(N)N)n12`, the TGI came out at 35 µM in the test on A498 renal; 40.9 µM with A549 NSCLC; 45.2 µM in the test with HCT-15 colon; 37.5 µM with MCF7 breast; 18.8 µM in the test on MOLT-4 leukemia; 36.1 µM in the test on OVCAR-8 ovarian. Besides, the TGI amounted to 35 µM in the test with RXF 393 renal, 35.1 µM in the test with SF-539 CNS and 31.1 µM in the test with SK-MEL-28 melanoma.

`CCOC(=O)N1c2ccccc2N(C(=O)OCC)C1CC(=O)/C=C/c1ccccc1`: the TGI in the test with A498 renal was determined as 10.6 µM; in the test on A549 NSCLC it was 18.1 µM; in the test on HCT-15 colon, 12.9 µM; with MCF7 breast, 13.6 µM; with MOLT-4 leukemia, 12.4 µM; in the test with OVCAR-8 ovarian, 8.63 µM. The TGI in the test with RXF 393 renal came to 13.8 µM; in the test with SK-MEL-28 melanoma it was 28 µM; in the test on SK-OV-3 ovarian, 23 µM.
